From US20080004695A1, “EVEROLIMUS/PIMECROLIMUS-ELUTING IMPLANTABLE MEDICAL DEVICES” (Abbott Cardiovascular Systems Inc., priority 2006, published 2008)

Key:
[1] = 24 hour release of everolimus and pimecrolimus from dual-coated stent in porcine serum; type: physicochemical; settings: EVAL-based dual-coated 12 mm Vision stent
Procedure: Using the method set forth in Example 1, a 12 mm Vision™ stent was similarly coated with everolimus and pimecrolimus. The 24 hour release of everolimus and pimecrolimus in porcine serum was then measured using methods known in the art. […] For pimecrolimus, 12.4 μg of an expected 60.6 μg of pimecrolimus was released over 24 hours resulting in 20.5% release.

[2] = in vivo release from PVDF-HFP-based coated stent implanted in a pig; settings: PVDF-HFP matrix stent implanted in a pig, day 7
Procedure: A 12 mm Vision™ stent was cleaned in a bath of isopropyl alcohol and treated in a plasma cleaner to strip the top layer of molecules from the stent for better coat adhesion. The stent was then spray-coated with a primer solution consisting of 2% PBMA. The coated stent was dried in a convection oven at 80° C. for 0.5 hours.
The stent was then spray-coated with a drug reservoir solution consisting of PVDF-HFP, pimecrolimus and everolimus. A drug:polymer ratio of 1:3.5 of both pimecrolimus and everolimus to PVDF-HFP was used to coat the stent in order to obtain 64 μg of pimecrolimus and 64 μg of everolimus in the final coating. Spray coating parameters and the solvent were identical to those used for coating with the primer layer.
The stent was implanted in a pig and 1, 3 and 7 day release rates were obtained and compared with 24 hour release rates in porcine serum. […] By day 7, release of both drugs was 30%.

% release over 24 hours [1] [%]	amount released over 24 hours [1] [µg]	in vivo percent release [2] [%]	Compound
19.7	12.2	30	CO[C@H]1C[C@@H]2CC[C@@H](C)[C@@](O)(O2)C(=O)C(=O)N2CCCC[C@H]2C(=O)O[C@H]([C@H](C)C[C@@H]2CC[C@@H](OCCO)[C@H](OC)C2)CC(=O)[C@H](C)/C=C(\C)[C@@H](O)[C@@H](OC)C(=O)[C@H](C)C[C@H](C)/C=C/C=C/C=C/1C [everolimus]
20.5	12.4	30	CC[C@@H]1/C=C(\C)C[C@H](C)C[C@H](OC)[C@H]2O[C@@](O)(C(=O)C(=O)N3CCCC[C@H]3C(=O)O[C@H](/C(C)=C/[C@@H]3CC[C@H](Cl)[C@H](OC)C3)[C@H](C)[C@@H](O)CC1=O)[C@H](C)C[C@@H]2OC [pimecrolimus]
